US8546440B2, “Substituted bicyclic imidazole derivatives as gamma secretase modulators” (Janssen Pharmaceuticals, Inc., priority 2008, dated 2013)

Columns and labels:
Aβtotal = experiment: Demonstration of in vivo efficacy: Aβtotal lowering in brain after single oral dose (Table 13); conditions: mouse brain soluble fraction, mean, compared to untreated animals
Text: To determine whether acute administration of an Aβ42 lowering agent would reduce Aβ42 levels in vivo, non-transgenic rodents, e.g. mice or rats were used. Alternatively, two to three month old Tg2576 mice expressing APP695 containing the “Swedish” variant can be used or a transgenic mouse model developed by Dr. Fred Van Leuven (K. U. Leuven, Belgium) and co-workers, with neuron-specific expression of a clinical mutant of the human amyloid precursor protein [V717I] (Moechars et al., 1999 J. Biol. Chem. 274, 6483). Young transgenic mice have high levels of Aβ in the brain but no detectable Aβ deposition. At approximately 6-8 months of age, the transgenic mice start to display spontaneous, progressive accumulation of β-amyloid (Aβ) in the brain, eventually resulting in amyloid plaques within the subiculum, hippocampus and cortex. Animals treated with the Aβ42 lowering agent were examined and compared to those untreated or treated with vehicle and brain levels of soluble Aβ42 and total Aβ would be quantitated by standard techniques, for example, using ELISA. Treatment periods varied from hours to days and were adjusted based on the results of the Aβ42 lowering once a time course of onset of effect could be established.
A typical protocol for measuring Aβ42 lowering in vivo is shown but it is only one of many variations that could be used to optimize the levels of detectable Aβ. For example, Aβ42 lowering compounds were formulated in 20% of Captisol® (a sulfobutyl ether of β-cyclodextrin) in water or 20% hydroxypropyl β cyclodextrin. The Aβ42 lowering agents were administered as a single oral dose or by any acceptable route of administration to overnight fasted animals. After four hours, the animals were sacrificed and Aβ42 levels were analysed.
Blood was collected by decapitation and exsanguinations in EDTA-treated collection tubes. Blood was centrifuged at 1900 g for 10 minutes at 4° C. and the plasma recovered and flash frozen for later analysis. The brain was removed from the cranium and hindbrain. The cerebellum was removed and the left and right hemisphere were separated. The left hemisphere was stored at −18° C. for quantitative analysis of test compound levels. The right hemisphere was rinsed with phosphate-buffered saline (PBS) buffer and immediately frozen on dry ice and stored at −80° C. until homogenization for biochemical assays.
Mouse brains were resuspended in 10 volumes of 0.4% DEA (diethylamine)/50 mM NaCl pH 10 (for non-transgenic animals) or 0.1% 3-[3-cholamidopropyl)-dimethyl-ammonio]-1-propanesulfonate (CHAPS) in tris buffered saline (TBS) (for transgenic animals) containing protease inhibitors (Roche-11873580001 or 04693159001) per gram of tissue, e.g. for 0.158 g brain, add 1.58 ml of 0.4% DEA. All samples were sonicated for 30 seconds on ice at 20% power output (pulse mode). Homogenates were centrifuged at 221.300×g for 50 min. The resulting high speed supernatants were then transferred to fresh tubes and were optionally further purified before the next step. A portion of the supernatant was neutralized with 10% 0.5 M Tris-HCl and this was used to quantify Aβtotal. […]
In this model at least 20% Aβ42 lowering compared to untreated animals would be advantageous.

Aβ42 = experiment: Screening for γ-secretase-modulating activity, Method 1: Aβ42 sandwich ELISA in supernatant of SKNBE2 cells carrying APP 695 wild type (Tables 12a, 12b); type: cell-based
Procedure, shortened: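 SKNBE2 cells expressing wild-type APP695 were treated with compound for 18 h, and secreted Aβ42 in the medium was quantified by sandwich ELISA (C-terminal-selective capture, biotinylated 3D6 detection, TMB read at 450 nm). IC50 came from 4-parameter fits of % inhibition or % of untreated control; toxicity was checked by WST-1.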

[1] = Homo sapiens, Method 1, Table 12a, SKNBE2 cells carrying APP 695 wild type, compounds 18 hours, ELISA, curve top and bottom fixed to 100 and 0, hill slope 1
[2] = Homo sapiens, Table 12b, Method 1, SKNBE2 cells carrying APP 695 wild type, cell supernatant ELISA, averaged IC50 values, percentage of control vs log concentration

Compound	Aβtotal (% Ctrl)_Mean (Aβtotal)	IC50 (Aβ42; [1])	IC50 (Aβ42; [2])	IC50 (Aβ42; Table 12b, Method 1, SKNBE2 cells carrying APP 695 wild type, cell supernatant ELISA, averaged IC50 values, percentage of control vs log concentration)
COc1cc(Nc2cccn3c(C)c(-c4ccccc4)nc23)ccc1-n1cnc(C)c1 [Compound 5]	96 % Ctrl	14 nM	12 nM	–
COc1cc(Nc2cccn3c(C)c(-c4ccccc4C(F)(F)F)nc23)ccc1-n1cnc(C)c1 [Compound 29]	86 % Ctrl	10 nM	8 nM	–
Cc1ncn(-c2ccc(Nc3cccn4cc(-c5ccccc5C)nc34)cc2)n1 [Compound 71]	103 % Ctrl	288 nM	–	–
COc1cc(Nc2cccn3cc(-c4ccc(F)cc4)nc23)ccc1-n1cnc(C)c1 [Compound 1]	103 % Ctrl	101 nM	98 nM	–
COc1cc(Nc2cccn3cc(C4CCOCC4)nc23)ccc1-n1cnc(C)c1 [Compound 4]	111 % Ctrl	53 nM	85 nM	–
COc1nc(Nc2cccn3c(C)c(-c4ccccc4C(F)(F)F)nc23)ccc1-n1cnc(C)c1 [Compound 138]	102 % Ctrl	–	–	9 nM
COc1cc(Nc2cccn3c(C)c(-c4ccccc4Cl)nc23)ccc1-n1cnc(C)c1 [Compound 15]	94 % Ctrl	12 nM	11 nM	–
COc1cccc(-c2cn3cccc(Nc4ccc(-n5cnc(C)c5)c(OC)c4)c3n2)c1 [Compound 33]	98 % Ctrl	31 nM	27 nM	–
COc1cc(Nc2cccn3cc(C)nc23)ccc1-n1cnc(C)c1 [Compound 50]	96 % Ctrl	253 nM	251 nM	–
COc1cc(Nc2cccn3c(Cl)c(-c4ccc(F)cc4)nc23)ccc1-n1cnc(C)c1 [Compound 2]	106 % Ctrl	65 nM	55 nM	–
COc1cc(Nc2cccn3c(C)c(-c4c(F)cccc4F)nc23)ccc1-n1cnc(C)c1 [Compound 27]	94 % Ctrl	25 nM	25 nM	–
